From PubChem BioAssay AID1645868 (Buhrlage Lab, Dana-Farber Cancer Institute and Novartis …, 2021)
Active and inactive are the calls of the source.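 The calls were made as follows: active = maximal percent inhibition of the deubiquitinase OTUD3 of at least 30% across the tested doses; inactive = the rest.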

Each compound was assayed against OTU domain-containing protein 3 (Homo sapiens) (UniProt Q5T2D3) (assay: Validation of screening hits, potency titration, in vitro enzymatic, OTU domain-containing protein 3 DUB inhibitors (AID 1645868)). Conditions: purified OTUD3, ubiquitin-rhodamine cleavage fluorescence, 2 h.
OTU domain-containing protein 3 (Homo sapiens), sequence (Q5T2D3 whole entry, looked up, the tested form may be a part): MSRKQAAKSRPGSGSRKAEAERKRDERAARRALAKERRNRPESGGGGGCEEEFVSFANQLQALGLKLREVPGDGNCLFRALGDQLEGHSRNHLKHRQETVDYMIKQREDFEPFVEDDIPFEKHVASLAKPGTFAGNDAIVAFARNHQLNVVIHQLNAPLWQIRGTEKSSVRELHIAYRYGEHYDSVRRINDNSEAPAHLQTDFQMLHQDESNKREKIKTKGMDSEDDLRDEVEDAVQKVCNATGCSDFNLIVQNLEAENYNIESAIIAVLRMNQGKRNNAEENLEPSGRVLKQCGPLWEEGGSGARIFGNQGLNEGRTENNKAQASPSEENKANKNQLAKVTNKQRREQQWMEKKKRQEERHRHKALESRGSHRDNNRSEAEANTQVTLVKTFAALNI
In the case of CN(C)c1ccc(C2CC(c3c(O)n(C)c(=O)[nH]c3=O)=Nc3ccccc3S2)cc1 (configuration not stated), the IC50 is reported as > 50 µM (inactive). COc1ccc(C2SCC(=O)Nc3c2c(=O)[nH]n3C2CCCCCC2)cc1 (configuration not stated) showed an IC50 of 30.1 µM. C=C1CCC2[C@](C)(CCC[C@]2(C)C(=O)OC)[C@H]1CCc1ccoc1C[N+](C)(C)Cc1ccccc1 (some centres not stated) was tested, and the IC50 was > 50 µM (inactive). COc1cccc(NC(=O)c2cnc3c(c2)c(=O)n(C)c(=O)n3C)c1 gave an IC50 of 19.9 µM. For CC1=C(c2ccc(C)c(C)c2)S(=O)(=O)NC1=NCC(=O)NCCc1ccc(C)cc1, the IC50 was > 50 µM (inactive). For COc1ccc(-n2nnc(C(=O)Nc3ccccc3)c2N)cc1, the IC50 was > 50 µM (inactive). For COc1ccc(CC(=O)Nc2nc(-c3ccco3)c(-c3ccco3)s2)cc1, the IC50 was > 50 µM (inactive). CC(=O)Nc1ccc(S(=O)(=O)NCc2ccc(C(=O)NCc3ccc(C)cc3)cc2)cc1 gave an IC50 of 25.2 µM. With Nc1nc(-c2ccc[nH]2)cs1 the IC50 was > 50 µM (inactive). Cc1ccc(Cn2c(=O)c3ccccc3n3c(CCC(=O)N4CCN(c5ccccn5)CC4)nnc23)cc1 gave an IC50 of 9.18 µM. CC(C)=CCC/C(C)=C/Cc1c(O)cc2c(c1O)C(=O)OC2 showed an IC50 of 3.25 µM. Cc1nn(-c2ccccc2)c2c1N=C1C(Cl)=CC(Cl)=CN1C21C(=O)Nc2ccccc21 (configuration not stated) was tested, and the IC50 was > 50 µM (inactive). With Clc1cncc(Oc2nc(-c3cccnc3)nc3ccccc23)c1 the IC50 was > 50 µM (inactive). For O=C(Cn1cncc(-c2nc(-c3ccccc3)cs2)c1=O)NC1CCCC1, the IC50 was > 50 µM (inactive). In the case of CC(C)(C)n1ncc2c(=O)n(Cc3cccc([N+](=O)[O-])c3)cnc21, the IC50 is reported as > 50 µM (inactive). For CC(=O)c1ccc(NC(=O)C2CCN(c3cncnc3N3CCCC3)CC2)cc1, the IC50 was > 50 µM (inactive). In the case of O=C(NCCn1ccc2ccccc21)c1cc2ccccc2oc1=O, the IC50 is reported as > 50 µM (inactive). CC(C)(C)C(=O)Nc1ccc(SCc2nnc(-c3ccccc3)o2)cc1 was tested, and the IC50 was > 50 µM (inactive). With COc1cccc2c1OCC(C(=O)NCc1ccc(F)cc1)=C2 the IC50 was > 50 µM (inactive). Work on Cc1ccc(NC(=O)CCC(=O)Nc2ccc3nc(N4CCCCC4)cc(C)c3c2)c(Br)c1 yielded an IC50 of 49.8 µM. Cc1nc(Nc2c3ccccc3nc3ccccc23)sc1C was tested, and the IC50 was > 50 µM (inactive). With O=C(Nc1nnc2n1CCCS2)c1cccc(Cl)c1 the IC50 was > 50 µM (inactive). In the case of COc1ccc2nc(NC(=O)C(CC(C)C)NS(=O)(=O)c3ccc4c(c3)CCN4C(C)=O)sc2c1 (configuration not stated), the IC50 is reported as 26.4 µM. CCOc1cccc2sc(N(Cc3cccnc3)C(=O)CCc3ccccc3)nc12 was tested, and the IC50 was > 50 µM (inactive). For Cc1c2c(nc3ccccc13)-c1ccccc1CC2, the IC50 was > 50 µM (inactive). O=C(Nc1cccc(F)c1)C1CCCN(S(=O)(=O)N2CCCCCC2)C1 (configuration not stated) was tested, and the IC50 was > 50 µM (inactive). Compound Cc1ccc(NCc2cc3c(C(C)(C)C)nn(-c4ccc(Cl)cc4)c3[nH]c2=O)cc1 has an IC50 of 33.5 µM. Cc1ccc(C(=O)NCC(=O)Nc2nc3ccccc3[nH]2)c(C)c1 showed an IC50 of 35.3 µM. CCc1cc2cc3c(cc2nc1SCC(=O)Nc1cccc(C(C)=O)c1)OCO3 was tested, and the IC50 was 26.5 µM. In the case of Cc1ccc2c(c1C)NC(=O)[C@]21[C@@H]2C(=O)N(c3cccc(Cl)c3)C(=O)[C@@H]2[C@@H]2CCCN21, the IC50 is reported as > 50 µM (inactive). With CCc1nc(-c2cc(C(=O)N3CCOCC3)c3ccccn23)cs1 the IC50 was > 50 µM (inactive). For Cc1ccc(Nc2nc(Nc3cccc(Cl)c3)nc3nccnc23)cc1, the IC50 was > 50 µM (inactive). With COc1ccc(-c2nc3n(n2)C(CC(=O)Nc2cccc4ccccc24)C(=O)N3)cc1 (configuration not stated) the IC50 was 13 µM. In the case of Cc1cc(-c2ccnc3c(C#N)cnn23)c(C)s1, the IC50 is reported as > 50 µM (inactive). In the case of CCN(Cc1ccccc1)S(=O)(=O)c1ccc(C(=O)Nc2ccc3c(c2)OCCO3)cc1, the IC50 is reported as > 50 µM (inactive). O=C(COc1cccc2c1CCN(Cc1cccnc1)C2=O)Nc1ccc2c(c1)OCCO2 was tested, and the IC50 was > 50 µM (inactive). With NS(=O)(=O)c1ccc(Cl)c(C(=O)OCc2csc(Nc3ccccc3)n2)c1 the IC50 was > 50 µM (inactive). With Cc1ccc(NC(=O)c2nnn(-c3ccccc3Br)c2C)cc1C the IC50 was > 50 µM (inactive). With CN1CCN(c2ccc3nc(-c4ccccc4)c(-c4ccccc4)nc3c2)CC1 the IC50 was > 50 µM (inactive). Cn1c(CN2CCCCCC2)nc2cc(NC(=O)c3ccccc3)ccc21 was tested, and the IC50 was > 50 µM (inactive). For CSc1nccc(-c2ccc(F)cc2)c1C#N, the IC50 was > 50 µM (inactive). C/C1=C\CCC(C)C(O)CC(O)C(C)C(O)CCC(C)C(O)CC2(O)OC(CC(OC(=O)CC(=O)O)CC(O)CC(O)CC(O)C(C)C(O)/C=C/C(C)C(C(C)CCCCCCCCN=C(N)N)OC1=O)CC(O)C2O (configuration not stated) was tested, and the IC50 was > 50 µM (inactive). With CCOC(=O)c1cnn(-c2ccc(C(=O)Nc3ccc(C)c(Cl)c3)cc2)c1N the IC50 was > 50 µM (inactive). Compound COc1ccc(N(CC(=O)NC2CCCCC2)C(=O)c2ccc(-c3ccccc3)[nH]2)cc1OC has an IC50 of 11.8 µM. For O=C(CC1C(=O)N(Cc2cccnc2)c2nc3ccccc3n21)Nc1cccc2ccccc12 (configuration not stated), the IC50 was > 50 µM (inactive). COc1ccc2nc(-c3ccc(NC(=O)c4cccc(OC)c4OC)cc3)cn2n1 was tested, and the IC50 was > 50 µM (inactive). Cc1c(Cl)cccc1NC(=O)Cn1c(=O)c2ccccc2n2nncc12 was tested, and the IC50 was > 50 µM (inactive).
